Consider one compound from US20230039987A1, “GEL COMPOSITIONS, SYSTEMS, AND METHODS” (Boston Scientific Scimed, Inc., priority 2021, published 2023).

This data set has as its system NIH 3T3 fibroblasts. The note with it: read-out: IC50 (cytotoxicity); 24 hours, MTS.

Procedure: In vitro cytotoxicity of the photoinitiator and the gel were tested using NIH 3T3 fibroblasts cultured in Dulbecco's Modified Eagle's Medium (DMEM) containing 10% fetal bovine serum and 1% penicillin-streptomycin. Cells were seeded in either 96 well plates or 12 well plates at a density of 2,500 cells/well or 25,000 cells/well, respectively, and allowed to adhere overnight. Photoinitiator solutions and the gel solution were sterile filtered using a 0.22 um filter prior to testing in vitro. The gel solution was then gelled within the biosafety cabinet using the 150 W halogen lamp and co-cultured with the cells utilizing a 3 μm pore size transwell insert. Cells were incubated with treatments for 24 hours and then viability was measured using an MTS (3-(4,5-dimethyltriazol-2-yl)-5-(3-carboxymethoxyphenyl)-2-(4-sulfophenyl)-2H-tratrazolium, inner salt) assay (CellTiter 96® AQueous One, Promega). Cell viabilities were normalized to control untreated cells.

`O=C(O)c1ccccc1-c1c2cc(Br)c(=O)c(Br)c-2oc2c(Br)c(O)c(Br)cc12` [photoinitiator, Eosin Y]: the IC50 – broadly, the concentration that gives 50% inhibition – was roughly 223 µM.
